Assay results as given in patent EP0240392A1, “Compounds of the cyclophosphazene type, process for their preparation and pharmaceutical preparation containing them” (CENTRE NATIONAL DE LA RECHERCHE SCIENTIFIQUE (CNRS), priority 1986, dated 1987).
Marks after values point to notes of the source that are not given here.

How the values were obtained:
[1] = test system: CARCINOME MAMMAIRE LIGNEE 16; assay: Antitumour activity on mammary carcinoma line 16 implanted i.m. in mice; format: in vivo, souris 3CH
From the text: (§1) Les tests d'activité antitumorale ont été conduits au sein du Screening and Pharmacology Group de l'E.O.R.T.C., implanté à l'Institut Mario Negri de Milan.
(§2) Ces essais ont été conduits soit en mono-injection à différentes doses au jour J+1 suivant la greffe de la tumeur, soit en poly-injections chroniques Q1D, soit en protocoles Q4D.
(§3) L'activité antitumorale est mesurée par le rapport T/C %, T (en jours) étant le durée moyenne de vie des souris traitées, C (en jours) étant la durée moyenne de vie des souris témoins.
(§4) L'effet thérapeutique est considéré comme significatif quant T/C % est supérieur ou égal à 125.

[2] = test system: LEUCEMIE P388 INTRACEREBRALE; assay: Antitumour activity on intracerebral P388 leukemia in mice; format: in vivo, souris CD2F1; settings: Tableau 2, inoculation i.c.
From the text: as §1, §2, §3, §4

LEUCEMIE L1210 = assay: Antitumour activity on L1210 leukemia implanted i.p. in mice; format: in vivo, souris CD2F1; parameters: key to T/C (%): Δ: 2 souris mortes avant le 5ème jour, 1 souris au jour 6, 2 souris au jour 16 et la dernière était encore vivante après le 40ème jour
From the text: as §1, §2, §3, §4

LEUCEMIE P388 = assay: Antitumour activity on P388 leukemia implanted i.p. in mice; format: in vivo, souris CD2F1
From the text: as §1, §2, §3, §4

[3] = 200 mg/kg i.p. j 1,5,9, jour 26
[4] = 300 mg/kg i.p. j 1,5,9, jour 26

## C(CCN1CCCNP12=NP(N1CC1)(N1CC1)=NP(N1CC1)(N1CC1)=N2)CN1CCCNP12=NP(N1CC1)(N1CC1)=NP(N1CC1)(N1CC1)=N2 (stereo not drawn) [SPM]
[1]; 100 mg/kg i.p. j 1-9
  toxicity of the regimen (result in words): TOXIQUE
[1]; 200 mg/kg i.p. j 1,5,9
  T/C (%): 105%
[1]; 200 mg/kg i.p. j 1,5,9, jour 15
  Volume moyen de la tumeur (cm^3 ± S.E.): 0,37±0,05* cm^3
[1]; 200 mg/kg i.p. j 1,5,9, jour 19
  Volume moyen de la tumeur (cm^3 ± S.E.): 1,70±0,24* cm^3
[1]; 200 mg/kg i.p. j 1,5,9, jour 22
  Volume moyen de la tumeur (cm^3 ± S.E.): 2,43±0,31* cm^3
[1]; [3]
  Volume moyen de la tumeur (cm^3 ± S.E.): 3,71±0,46 cm^3
  nombre d'animaux vivants/total: 9/10
[1]; 200 mg/kg i.p. j 1-9
  toxicity of the regimen (result in words): TOXIQUE
[1]; 300 mg/kg i.p. j 1,5,9
  T/C (%): 94%
[1]; 300 mg/kg i.p. j 1,5,9, jour 19
  Volume moyen de la tumeur (cm^3 ± S.E.): 0,24±0,14* cm^3
[1]; 300 mg/kg i.p. j 1,5,9, jour 22
  Volume moyen de la tumeur (cm^3 ± S.E.): 0,45±0,28* cm^3
[1]; [4]
  Volume moyen de la tumeur (cm^3 ± S.E.): 2,24±0,31 cm^3
  nombre d'animaux vivants/total: 3/10
[2]; 100 mg/kg i.p. x 9 (j 1 à 9)
  T/C (%): 141%
[2]; 150 mg/kg i.p. x 9 (j 1 à 9)
  T/C (%): 123%
[2]; 200 mg/kg i.p. x 9 (j 1 à 9)
  T/C (%): 129%
LEUCEMIE L1210; Tableau 1, 25 mg/kg i.p. x j 1,5,9
  T/C (%): 117%
LEUCEMIE L1210; Tableau 1, 25 mg/kg i.p. x j 1-9
  T/C (%): 131%
LEUCEMIE L1210; Tableau 1, 50 mg/kg i.p. x j 1
  T/C (%): 131%
LEUCEMIE L1210; Tableau 1, 50 mg/kg i.p. x j 1,5,9
  T/C (%): 131%
LEUCEMIE L1210; Tableau 1, 50 mg/kg i.p. x j 1-9
  T/C (%): 150%
LEUCEMIE L1210; Tableau 1, 75 mg/kg i.p. x j 1-9
  T/C (%): 140%
LEUCEMIE L1210; Tableau 1, 100 mg/kg i.p. x j 1
  T/C (%): 125%
LEUCEMIE L1210; Tableau 1, 100 mg/kg i.p. x j 1,5,9
  T/C (%): 137%
LEUCEMIE L1210; Tableau 1, 100 mg/kg i.p. x j 1-9
  T/C (%): 140%
LEUCEMIE L1210; Tableau 1, 150 mg/kg i.p. x j 1-9
  T/C (%): 170%
LEUCEMIE L1210; Tableau 1, 200 mg/kg i.p. x j 1
  T/C (%): 156%
LEUCEMIE L1210; Tableau 1, 200 mg/kg i.p. x j 1,5,9
  T/C (%): 159%
LEUCEMIE L1210; Tableau 1, 300 mg/kg i.p. x j 1
  T/C (%): 135%
LEUCEMIE L1210; Tableau 1, 300 mg/kg i.p. x j 1,5,9
  T/C (%): 164%
LEUCEMIE L1210; Tableau 1, 400 mg/kg i.p. x j 1
  T/C (%): 130%
LEUCEMIE L1210; Tableau 1, 12,5 mg/kg i.p. x j 1-9
  T/C (%): 112%
LEUCEMIE L1210; Tableau 10, 25 mg/kg i.p. x j 1-9
  T/C (%): 141%
LEUCEMIE L1210; Tableau 10, 50 mg/kg i.p. x j 1,5,9
  T/C (%): 123%
LEUCEMIE L1210; Tableau 10, 50 mg/kg i.p. x j 1-9
  T/C (%): 152%
LEUCEMIE L1210; Tableau 10, 100 mg/kg i.p. x j 1
  T/C (%): 135%
LEUCEMIE L1210; Tableau 10, 100 mg/kg i.p. x j 1,5,9
  T/C (%): 152%
LEUCEMIE L1210; Tableau 10, 100 mg/kg i.p. x j 1-9
  T/C (%): 170%
LEUCEMIE L1210; Tableau 10, 150 mg/kg i.p. x j 1,5,9
  T/C (%): 176%
LEUCEMIE L1210; Tableau 10, 150 mg/kg i.p. x j 1-9
  T/C (%): 182%
LEUCEMIE L1210; Tableau 10, 200 mg/kg i.p. x j 1
  T/C (%): 147%
LEUCEMIE L1210; Tableau 10, 250 mg/kg i.p. x j 1,5,9
  T/C (%): 194%
LEUCEMIE L1210; Tableau 10, 300 mg/kg i.p. x j 1
  T/C (%): 158%
LEUCEMIE L1210; Tableau 10, 400 mg/kg i.p. x j 1
  T/C (%): Δ
LEUCEMIE L1210; quel que soit le protocole utilisé
  activité sur la leucémie L1210 (result in words): relativement faible
LEUCEMIE P388; Tableau 2, inoculation i.p., 100 mg/kg i.p. x 9 (j 1 à 9)
  T/C (%): 245%
LEUCEMIE P388; Tableau 2, inoculation i.p., 150 mg/kg i.p. x 9 (j 1 à 9)
  T/C (%): 135%
LEUCEMIE P388; Tableau 2, inoculation i.p., 200 mg/kg i.p. x 9 (j 1 à 9)
  T/C (%): 110%
LEUCEMIE P388; Tableau 9, 25 mg/kg i.p. x j 1-9
  T/C (%): 166%
LEUCEMIE P388; Tableau 9, 50 mg/kg i.p. x j 1,5,9
  T/C (%): 161%
LEUCEMIE P388; Tableau 9, 50 mg/kg i.p. x j 1-9
  T/C (%): 176%
LEUCEMIE P388; Tableau 9, 100 mg/kg i.p. x j 1
  T/C (%): 152%
LEUCEMIE P388; Tableau 9, 100 mg/kg i.p. x j 1,5,9
  T/C (%): 190%
LEUCEMIE P388; Tableau 9, 100 mg/kg i.p. x j 1-9 (9Q1D)
  T/C (%): 260%
LEUCEMIE P388; Tableau 9, 150 mg/kg i.p. x j 1,5,9
  T/C (%): 219%
LEUCEMIE P388; Tableau 9, 150 mg/kg i.p. x j 1-9
  T/C (%): 195%
LEUCEMIE P388; Tableau 9, 200 mg/kg i.p. x j 1
  T/C (%): 166%
LEUCEMIE P388; Tableau 9, 250 mg/kg i.p. x j 1,5,9 (Q4D)
  T/C (%): 285%
LEUCEMIE P388; Tableau 9, 300 mg/kg i.p. x j 1
  T/C (%): 166%
LEUCEMIE P388; Tableau 9, 400 mg/kg i.p. x j 1
  T/C (%): 200%
